From patent US20240109930A1, “TRIAZOLYL-METHYL SUBSTITUTED ALPHA-D-GALACTOPYRANOSIDE DERIVATIVES” (Idorsia Pharmaceuticals Ltd, priority 2021, published 2024)

Tests used:
human Gal-1 (hGal-1) = human Gal-1 (hGal-1) (Homo sapiens, UniProt P09382, C131S/C17S/C43S/C61S/C89S); experiment: Competitive binding assay: biotinylated hGal-1 binding to microplate-adsorbed asialofetuin (ASF); details: IC50 values from several measurements given as geomean
Procedure, shortened: (§1)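 Biotinylated hGal-3 or hGal-1 (preferably cysteine-free Cys→Ser mutant), 300–1000 ng/mL, competes with compound for ASF-coated wells for 3 h at 4 °C. Bound lectin detected with streptavidin-peroxidase (80 ng/mL, 1 h, 4 °C) and ABTS by absorbance; IC50 reported as geomean of several runs.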

human Gal-3 (hGal-3) = human Gal-3 (hGal-3) (Homo sapiens (Human), UniProt P17931); experiment: Competitive binding assay: biotinylated hGal-3 binding to microplate-adsorbed asialofetuin (ASF); details: IC50 values from several measurements given as geomean
Procedure, shortened: as §1

Sequence of human Gal-3 (hGal-3) (P17931 whole entry): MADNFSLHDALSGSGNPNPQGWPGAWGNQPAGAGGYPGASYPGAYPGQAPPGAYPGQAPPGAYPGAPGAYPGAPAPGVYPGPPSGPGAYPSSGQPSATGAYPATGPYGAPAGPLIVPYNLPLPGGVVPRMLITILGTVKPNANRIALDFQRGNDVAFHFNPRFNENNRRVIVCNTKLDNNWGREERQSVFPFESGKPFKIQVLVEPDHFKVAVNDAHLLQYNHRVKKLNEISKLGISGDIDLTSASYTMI

| Compound | IC50 (human Gal-1 (hGal-1)) | IC50 (human Gal-3 (hGal-3)) |
| --- | --- | --- |
| CO[C@@H]1[C@@H](n2cc(-c3ccc(Cl)c(F)c3F)nn2)[C@@H](O)[C@@H](CO)O[C@@H]1Cn1cc(C2CC3(C2)CC(F)(F)C3)nn1 [Ex 2.2.84.] | 11000 nM | 240 nM |
| CO[C@@H]1[C@@H](n2cc(-c3ccc(Cl)c(F)c3F)nn2)[C@@H](O)[C@@H](CO)O[C@@H]1Cn1cc(C2(O)CC(F)(F)C2)nn1 [Ex 2.2.85.] | 5400 nM | 170 nM |
| CO[C@@H]1[C@@H](n2cc(-c3ccc(Cl)c(F)c3F)nn2)[C@@H](O)[C@@H](CO)O[C@@H]1Cn1cc([C@H]2C[C@@H](N)C2)nn1 [Ex 2.2.87.] | 7150 nM | 120 nM |
| CO[C@@H]1[C@@H](n2cc(-c3ccc(F)c(F)c3F)nn2)[C@@H](O)[C@@H](CO)O[C@@H]1Cc1cn(C2(CO)CC2)nn1 [Ex 3.1.4.] | 810 nM | 60 nM |
| CO[C@@H]1[C@@H](n2cc(-c3ccc(F)c(F)c3F)nn2)[C@@H](O)[C@@H](CO)O[C@@H]1Cc1cn(C2(CO)CCCC2)nn1 [Ex 3.1.5.] | 600 nM | 60 nM |
| CO[C@@H]1[C@@H](n2cc(-c3ccc(F)c(F)c3F)nn2)[C@@H](O)[C@@H](CO)O[C@@H]1Cc1cn(C2(C)COC2)nn1 [Ex 3.1.6., (2R,3R,4S,5R,6R)-2-(hydroxymethyl)-5-methoxy-6-((1-(3-methyloxetan-3-yl)-1H-1,2,3-triazol-4-yl)methyl)-4-(4-(2,3,4-trifluorophenyl)-1H-1,2,3-triazol-1-yl)tetrahydro-2H-pyran-3-ol] | 190 nM | 50 nM |
| COCC1(n2cc(C[C@H]3O[C@H](CO)[C@H](O)[C@H](n4cc(-c5ccc(F)c(F)c5F)nn4)[C@H]3OC)nn2)CC1 [Ex 3.1.7., (2R,3R,4S,5R,6R)-2-(Hydroxymethyl)-5-methoxy-6-((1-(1-(methoxymethyl)cyclopropyl)-1H-1,2,3-triazol-4-yl)methyl)-4-(4-(2,3,4-trifluorophenyl)-1H-1,2,3-triazol-1-yl)tetrahydro-2H-pyran-3-ol] | 1200 nM | 120 nM |
| CO[C@@H]1[C@@H](n2cc(-c3ccc(F)c(F)c3F)nn2)[C@@H](O)[C@@H](CO)O[C@@H]1Cc1cn(C2(CO)CCC2)nn1 [Ex 3.1.11.] | 890 nM | 40 nM |
| CO[C@@H]1[C@@H](n2cc(-c3ccc(F)c(F)c3F)nn2)[C@@H](O)[C@@H](CO)O[C@@H]1Cc1cn(C23CC(C2)C3)nn1 [Ex 3.1.12.] | 950 nM | 60 nM |
| CO[C@@H]1[C@@H](n2cc(-c3ccc(F)c(F)c3F)nn2)[C@@H](O)[C@@H](CO)O[C@@H]1Cc1cn(C2(C)CCC2)nn1 [Ex 3.1.13.] | 290 nM | 30 nM |
| CO[C@@H]1[C@@H](n2cc(-c3ccc(F)c(F)c3F)nn2)[C@@H](O)[C@@H](CO)O[C@@H]1Cc1cn(C23CC(C)(C2)C3)nn1 [Ex 3.1.14.] | 700 nM | 60 nM |
| CO[C@@H]1[C@@H](n2cc(-c3ccc(F)c(F)c3F)nn2)[C@@H](O)[C@@H](CO)O[C@@H]1Cc1cn(C2(C)CC(F)(F)C2)nn1 [Ex 3.1.15.] | 460 nM | 50 nM |
| CO[C@@H]1[C@@H](n2cc(-c3ccc(F)c(F)c3F)nn2)[C@@H](O)[C@@H](CO)O[C@@H]1Cc1cn(C2CC3(COC3)C2)nn1 [Ex 3.1.16.] | 1110 nM | 120 nM |
| CO[C@@H]1[C@@H](n2cc(-c3ccc(F)c(F)c3F)nn2)[C@@H](O)[C@@H](CO)O[C@@H]1Cc1cn(C2(CO)CC(F)(F)C2)nn1 [Ex 3.1.18.] | 1390 nM | 90 nM |
| CO[C@@H]1[C@@H](n2cc(-c3ccc(F)c(F)c3F)nn2)[C@@H](O)[C@@H](CO)O[C@@H]1Cc1cn([C@]2(C)C[C@H](O)C2)nn1 [Ex 3.1.19.] | 260 nM | 60 nM |
| COCC1(n2cc(C[C@H]3O[C@H](CO)[C@H](O)[C@H](n4cc(-c5ccc(F)c(F)c5F)nn4)[C@H]3OC)nn2)COC1 [Ex 3.1.21.] | 770 nM | 60 nM |
| CO[C@@H]1[C@@H](n2cc(-c3ccc(F)c(F)c3F)nn2)[C@@H](O)[C@@H](CO)O[C@@H]1Cc1cn(C2(CCO)COC2)nn1 [Ex 3.1.22.] | 420 nM | 60 nM |
| CO[C@@H]1[C@@H](n2cc(-c3ccc(F)c(F)c3F)nn2)[C@@H](O)[C@@H](CO)O[C@@H]1Cc1cn(C2(C)CC2)nn1 [Ex 3.1.23.] | 390 nM | 50 nM |

| Compound | IC50 (human Gal-1 (hGal-1)) | IC50 (human Gal-3 (hGal-3)) |
| --- | --- | --- |
| CO[C@@H]1[C@@H](n2cc(-c3ccc(F)c(F)c3F)nn2)[C@@H](O)[C@@H](CO)O[C@@H]1Cc1cn(C23CC(C(F)(F)F)(C2)C3)nn1 [Ex 3.1.24.] | 2080 nM | 90 nM |
| CO[C@@H]1[C@@H](n2cc(-c3ccc(F)c(F)c3F)nn2)[C@@H](O)[C@@H](CO)O[C@@H]1Cc1cn(C23CC(F)(C2)C3)nn1 [Ex 3.1.25.] | 1550 nM | 40 nM |
| CO[C@@H]1[C@@H](n2cc(-c3ccc(F)c(F)c3F)nn2)[C@@H](O)[C@@H](CO)O[C@@H]1Cc1cn(C2CC3(CC3)C2)nn1 [Ex 3.1.26.] | 760 nM | 70 nM |
| CO[C@@H]1[C@@H](n2cc(-c3ccc(F)c(F)c3F)nn2)[C@@H](O)[C@@H](CO)O[C@@H]1Cc1cn([C@]2(C)C[C@@H](O)C2)nn1 [Ex 3.1.27.] | 140 nM | 30 nM |
| CO[C@@H]1[C@@H](n2cc(-c3ccc(F)c(F)c3F)nn2)[C@@H](O)[C@@H](CO)O[C@@H]1Cc1cn(C(C)(C)C(F)F)nn1 [Ex 3.1.28., (2R,3R,4S,5R,6R)-6-((1-(1,1-difluoro-2-methylpropan-2-yl)-1H-1,2,3-triazol-4-yl)methyl)-2-(hydroxymethyl)-5-methoxy-4-(4-(2,3,4-trifluorophenyl)-1H-1,2,3-triazol-1-yl)tetrahydro-2H-pyran-3-ol] | 290 nM | 30 nM |
| CO[C@@H]1[C@@H](n2cc(-c3ccc(F)c(F)c3F)nn2)[C@@H](O)[C@@H](CO)O[C@@H]1Cc1cn(C23CC(OC)(C2)C3)nn1 [Ex 3.1.29.] | 760 nM | 30 nM |
| CO[C@@H]1[C@@H](n2cc(-c3ccc(F)c(F)c3F)nn2)[C@@H](O)[C@@H](CO)O[C@@H]1Cc1cn(C2(CF)CCC2)nn1 [Ex 3.1.40., (2R,3R,4S,5R,6R)-6-((1-(1-(fluoromethyl)cyclobutyl)-1H-1,2,3-triazol-4-yl)methyl)-2-(hydroxymethyl)-5-methoxy-4-(4-(2,3,4-trifluorophenyl)-1H-1,2,3-triazol-1-yl)tetrahydro-2H-pyran-3-ol] | 260 nM | 70 nM |
| CO[C@@H]1[C@@H](n2cc(-c3ccc(F)c(F)c3F)nn2)[C@@H](O)[C@@H](CO)O[C@@H]1Cc1cn(C2(C(F)F)CCC2)nn1 [Ex 3.1.43., (2R,3R,4S,5R,6R)-6-((1-(1-(difluoromethyl)cyclobutyl)-1H-1,2,3-triazol-4-yl)methyl)-2-(hydroxymethyl)-5-methoxy-4-(4-(2,3,4-trifluorophenyl)-1H-1,2,3-triazol-1-yl)tetrahydro-2H-pyran-3-ol] | 210 nM | 30 nM |
| CO[C@@H]1[C@@H](n2cc(-c3ccc(F)c(F)c3F)nn2)[C@@H](O)[C@@H](CO)O[C@@H]1Cc1cn(C2(CF)CC2)nn1 [Ex 3.1.46., (2R,3R,4S,5R,6R)-6-((1-(1-(fluoromethyl)cyclopropyl)-1H-1,2,3-triazol-4-yl)methyl)-2-(hydroxymethyl)-5-methoxy-4-(4-(2,3,4-trifluorophenyl)-1H-1,2,3-triazol-1-yl)tetrahydro-2H-pyran-3-ol] | 400 nM | 70 nM |
| CO[C@@H]1[C@@H](n2cc(-c3ccc(F)c(F)c3F)nn2)[C@@H](O)[C@@H](CO)O[C@@H]1Cc1cn(C2(C(F)F)CC2)nn1 [Ex 3.1.51.] | 240 nM | 40 nM |
| CO[C@@H]1[C@@H](n2cc(-c3ccc(F)c(F)c3F)nn2)[C@@H](O)[C@@H](CO)O[C@@H]1Cc1cn(C2(CF)COC2)nn1 [Ex 3.1.52.] | 240 nM | 30 nM |
| CO[C@@H]1[C@@H](n2cc(-c3ccc(F)c(F)c3F)nn2)[C@@H](O)[C@@H](CO)O[C@@H]1Cc1cn(C2(C(F)F)COC2)nn1 [Ex 3.1.53.] | 130 nM | 20 nM |
| CO[C@@H]1[C@@H](n2cc(-c3ccc(F)c(F)c3F)nn2)[C@@H](O)[C@@H](CO)O[C@@H]1Cc1cn(C2(C(F)(F)F)CC2)nn1 [Ex 3.1.54.] | 280 nM | 50 nM |
| CO[C@@H]1[C@@H](n2cc(-c3ccc(F)c(F)c3F)nn2)[C@@H](O)[C@@H](CO)O[C@@H]1Cc1cn(C2(C(F)(F)F)CCC2)nn1 [Ex 3.1.55., (2R,3R,4S,5R,6R)-2-(hydroxymethyl)-5-methoxy-6-((1-(1-(trifluoromethyl)cyclobutyl)-1H-1,2,3-triazol-4-yl)methyl)-4-(4-(2,3,4-trifluorophenyl)-1H-1,2,3-triazol-1-yl)tetrahydro-2H-pyran-3-ol] | 180 nM | 40 nM |
| CO[C@@H]1[C@@H](n2cc(-c3ccc(F)c(F)c3F)nn2)[C@@H](O)[C@@H](CO)O[C@@H]1Cc1cn(C2(C(F)(F)F)COC2)nn1 [Ex 3.1.58., (2R,3R,4S,5R,6R)-2-(hydroxymethyl)-5-methoxy-6-((1-(3-(trifluoromethyl)oxetan-3-yl)-1H-1,2,3-triazol-4-yl)methyl)-4-(4-(2,3,4-trifluorophenyl)-1H-1,2,3-triazol-1-yl)tetrahydro-2H-pyran-3-ol] | 200 nM | 40 nM |
| CO[C@@H]1[C@@H](n2cc(-c3ccc(F)c(F)c3F)nn2)[C@@H](O)[C@@H](CO)O[C@@H]1Cc1cn(C23COC(C)(C2)C3)nn1 [Ex 3.1.59.] | 520 nM | 40 nM |
| CO[C@@H]1[C@@H](n2cc(-c3ccc(F)c(F)c3F)nn2)[C@@H](O)[C@@H](CO)O[C@@H]1Cc1cn(C23CCOC(C)(C2)C3)nn1 [Ex 3.1.62.] | 810 nM | 60 nM |
| CO[C@@H]1[C@@H](n2cc(-c3ccc(F)c(F)c3F)nn2)[C@@H](O)[C@@H](CO)O[C@@H]1Cc1cn(C2CCC23CCC3)nn1 (stereo partly drawn) [Ex 3.1.82.] | 370 nM | 50 nM |
